According to the supplement of paper PMC10307832:

Key:
Test in all cases: relative viability (nuclei count vs DMSO), 5 days (fraction); higher = more cells survive
NCI-H1437 = test system: NCI-H1437
In short: (§1)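 Relative viability equals treated-well nuclei counts divided by vehicle-well nuclei counts. Counts came from 4× images of lung cancer cell lines grown in 1536-well plates for 5 days after pin-tool dosing on the day after seeding. Dosing used one drug alone or a fixed anchor-drug dose plus five library-drug doses (not always all listed) in √10 steps, and values are medians of duplicate plates.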

NCI-H522 = test system: NCI-H522
In short: as §1

NCI-H1623 = test system: NCI-H1623
In short: as §1

HCC-366 = test system: HCC-366
In short: as §1

HCC-44 = test system: HCC-44
In short: as §1

A549 = test system: A549
In short: as §1

NCI-H1703 = test system: NCI-H1703
In short: as §1

NCI-H1299 = test system: NCI-H1299
In short: as §1

EBC-1 = test system: EBC-1
In short: as §1

NCI-H1648 = test system: NCI-H1648
In short: as §1

Calu-6 = test system: Calu-6
In short: as §1

IA-LM = test system: IA-LM
In short: as §1

## CC1(C)CCC(c2ccc(Cl)cc2)=C(CN2CCN(c3ccc(C(=O)NS(=O)(=O)c4ccc(N[C@H](CCN5CCOCC5)CSc5ccccc5)c(S(=O)(=O)C(F)(F)F)c4)cc3)CC2)C1 [Navitoclax] + Cc1nc(Nc2ncc(C(=O)Nc3c(C)cccc3Cl)s2)cc(N2CCN(CCO)CC2)n1 [Dasatinib] (partner 0.075 µM)
NCI-H1437; first compound 0.005 µM
  relative viability: 0.377
NCI-H1437; first compound 0.01581 µM
  relative viability: 0.513
NCI-H1437; first compound 0.05 µM
  relative viability: 0.287
NCI-H1437; first compound 0.1581 µM
  relative viability: 0.394
NCI-H1437; first compound 0.5 µM
  relative viability: 0.41
NCI-H522; first compound 0.005 µM
  relative viability: 0.685
NCI-H522; first compound 0.01581 µM
  relative viability: 1.02
NCI-H522; first compound 0.05 µM
  relative viability: 1.17
NCI-H522; first compound 0.1581 µM
  relative viability: 1.06
NCI-H522; first compound 0.5 µM
  relative viability: 0.816
NCI-H1623; first compound 0.005 µM
  relative viability: 0.546
NCI-H1623; first compound 0.01581 µM
  relative viability: 0.578
NCI-H1623; first compound 0.05 µM
  relative viability: 0.518
NCI-H1623; first compound 0.1581 µM
  relative viability: 0.539
NCI-H1623; first compound 0.5 µM
  relative viability: 0.618
HCC-366; first compound 0.005 µM
  relative viability: 0.587
HCC-366; first compound 0.01581 µM
  relative viability: 0.689
HCC-366; first compound 0.1581 µM
  relative viability: 0.709
HCC-366; first compound 0.5 µM
  relative viability: 0.646

## CC1(C)CCC(c2ccc(Cl)cc2)=C(CN2CCN(c3ccc(C(=O)NS(=O)(=O)c4ccc(N[C@H](CCN5CCOCC5)CSc5ccccc5)c(S(=O)(=O)C(F)(F)F)c4)cc3)CC2)C1 [Navitoclax] + O=C(c1cc(Cc2n[nH]c(=O)c3ccccc23)ccc1F)N1CCN(C(=O)C2CC2)CC1 [Olaparib] (partner 8 µM)
HCC-44; first compound 0.005 µM
  relative viability: 0.971
HCC-44; first compound 0.01581 µM
  relative viability: 0.98
HCC-44; first compound 0.05 µM
  relative viability: 0.887
HCC-44; first compound 0.1581 µM
  relative viability: 0.943
HCC-44; first compound 0.5 µM
  relative viability: 0.932
NCI-H1437; first compound 0.005 µM
  relative viability: 0.619
NCI-H1437; first compound 0.01581 µM
  relative viability: 0.659
NCI-H1437; first compound 0.05 µM
  relative viability: 0.655
NCI-H1437; first compound 0.1581 µM
  relative viability: 0.629
NCI-H1437; first compound 0.5 µM
  relative viability: 0.656
A549; first compound 0.005 µM
  relative viability: 0.37
A549; first compound 0.01581 µM
  relative viability: 0.33
A549; first compound 0.05 µM
  relative viability: 0.119
A549; first compound 0.1581 µM
  relative viability: 0.33
A549; first compound 0.5 µM
  relative viability: 0.302
NCI-H1703; first compound 0.005 µM
  relative viability: 0.536
NCI-H1703; first compound 0.01581 µM
  relative viability: 0.626
NCI-H1703; first compound 0.05 µM
  relative viability: 0.508
NCI-H1703; first compound 0.1581 µM
  relative viability: 0.512
NCI-H1703; first compound 0.5 µM
  relative viability: 0.536
NCI-H1299; first compound 0.005 µM
  relative viability: 0.943
NCI-H1299; first compound 0.01581 µM
  relative viability: 1
NCI-H1299; first compound 0.05 µM
  relative viability: 0.949
NCI-H1299; first compound 0.1581 µM
  relative viability: 0.977
NCI-H1299; first compound 0.5 µM
  relative viability: 0.956
EBC-1; first compound 0.005 µM
  relative viability: 0.745
EBC-1; first compound 0.01581 µM
  relative viability: 0.864
EBC-1; first compound 0.05 µM
  relative viability: 0.658
EBC-1; first compound 0.1581 µM
  relative viability: 0.683
EBC-1; first compound 0.5 µM
  relative viability: 0.663
NCI-H522; first compound 0.005 µM
  relative viability: 0.657
NCI-H522; first compound 0.01581 µM
  relative viability: 0.745
NCI-H522; first compound 0.05 µM
  relative viability: 0.757
NCI-H522; first compound 0.1581 µM
  relative viability: 0.542
NCI-H522; first compound 0.5 µM
  relative viability: 0.62
NCI-H1648; first compound 0.005 µM
  relative viability: 0.632
NCI-H1648; first compound 0.01581 µM
  relative viability: 1.06
NCI-H1648; first compound 0.1581 µM
  relative viability: 0.922
NCI-H1648; first compound 0.5 µM
  relative viability: 1.03
HCC-366; first compound 0.005 µM
  relative viability: 0.362
HCC-366; first compound 0.01581 µM
  relative viability: 0.43
HCC-366; first compound 0.1581 µM
  relative viability: 0.404
HCC-366; first compound 0.5 µM
  relative viability: 0.399
Calu-6; first compound 0.005 µM
  relative viability: 0.57
Calu-6; first compound 0.01581 µM
  relative viability: 0.518
Calu-6; first compound 0.05 µM
  relative viability: 0.558
Calu-6; first compound 0.1581 µM
  relative viability: 0.457
Calu-6; first compound 0.5 µM
  relative viability: 0.478
IA-LM; first compound 0.005 µM
  relative viability: 0.814
IA-LM; first compound 0.01581 µM
  relative viability: 0.836
IA-LM; first compound 0.05 µM
  relative viability: 0.792
IA-LM; first compound 0.1581 µM
  relative viability: 0.789
IA-LM; first compound 0.5 µM
  relative viability: 0.866

## Oc1nc(-c2ccc(C(F)(F)F)cc2)nc2c1CSCC2 [XAV939] + CCNC(=O)c1noc(-c2cc(C(C)C)c(O)cc2O)c1-c1ccc(CN2CCOCC2)cc1 [Luminespib] (partner 0.01 µM)
HCC-44; first compound 0.08 µM
  relative viability: 1.61
HCC-44; first compound 0.253 µM
  relative viability: 0.981
HCC-44; first compound 0.8 µM
  relative viability: 1.12
HCC-44; first compound 2.53 µM
  relative viability: 0.974
NCI-H1437; first compound 0.08 µM
  relative viability: 1.2
NCI-H1437; first compound 0.253 µM
  relative viability: 1.09
NCI-H1437; first compound 0.8 µM
  relative viability: 1.14
NCI-H1437; first compound 2.53 µM
  relative viability: 0.911
NCI-H522; first compound 0.08 µM
  relative viability: 1.45
NCI-H522; first compound 0.253 µM
  relative viability: 1.24
NCI-H522; first compound 0.8 µM
  relative viability: 1.05
NCI-H522; first compound 2.53 µM
  relative viability: 1.09
NCI-H1623; first compound 0.08 µM
  relative viability: 0.493
NCI-H1623; first compound 0.253 µM
  relative viability: 0.432
NCI-H1623; first compound 0.8 µM
  relative viability: 0.415
NCI-H1623; first compound 2.53 µM
  relative viability: 0.357
